# Results as given in patent US12285403B2, “A2-73 as a therapeutic for insomnia, anxiety and agitation” (Anavex Life Sciences Corp., priority 2016, dated 2025).
# “Also recorded” adds a separate entry of the source.
# Columns and labels:
# [1] = test system: mild-to-moderate Alzheimer's disease patients; assay: Cogstate test battery, Phase 2a study; assay type: in vivo, human; conditions: over 31 weeks of treatment; FIG. 8; listed as ANAVEX 2-73, hydrochloride
# From the text: Although the present invention calls for methods of treating insomnia, some primary sleep disorders, such as circadian rhythm disorders, advanced sleep phase disorder also termed sleep onset insomnia, mid-nocturnal insomnia, early morning insomnia, hyper insomnia, trouble staying asleep, jet lag, narcolepsy, non-24-hour sleep-wake syndrome, include insomnia as a component of the disorder. Thus, the term “insomnia” should be understood to also include the insomnia component of these disorders. • Aβ—Amyloid beta is abbreviated as Aβ. • AD—Alzheimer's disease is abbreviated as AD. • ADCS-ADL—Alzheimer's Disease Cooperative Study Activities of Daily Living Inventory is abbreviated as ADCS-ADL. • Cogstate tasks—Cogstate tasks refers to Cogstate cognitive tests (Cogstate Alzheimer's Battery) using visual and verbal stimuli to ensure assessment. […] When a number of these individual tests are put together to form a test battery, a more complete picture of a person's cognitive state can be defined. • DPZ—Donepezil is abbreviated as DPZ. • EEG/ERP—EEG/ERP is a reference to ERP measured via EEG. • ERP—Event-related potential is abbreviated as ERP. • HAM-D—Hamilton Depression Rating Scale is abbreviated as HAM-D. • MCI—Mild cognitive impairment is abbreviated as MCI. • MMSE—MMSE refers to the Mini-Mental State Examination (MMSE) or Folstein test. […]
# [2] = test system: insomnia, anxiety or agitation; assay: Single-patient therapy Examples 1-10 (insomnia, anxiety, agitation); assay type: in vivo, human
# Experimental: A person presents as suffering from maintenance insomnia for one year. They are started on oral A2-73 at 10 mg/day. […] They are currently maintained on 10 mg of A2-73 and is sleeping well. A person presents with anxiety of three years' duration. They are administered A2-73 at 20 mg oral per day every other day. […] They are maintained on this dosing schedule for 60 days. […] They are treated with 30 mg A2-73 oral daily for 30 days. […] They are currently maintained at that dosage and is not anxious. A person presents with MCI and reports maintenance insomnia for one year. They are started on oral A1-41 at 10 mg/day. […] They are currently maintained on 10 mg of A1-41 and is sleeping well. The patient is a person with diagnosed AD and reported anxiety of three years' duration. They are administered A19-144 at 20 mg oral per day every day for 90 days. […] They are chronically maintained on this dosing schedule. A person diagnosed with mild cognitive impairment presents as suffering from maintenance insomnia for one year. They are started on oral A2-73 at 50 mg/day. […] They are currently maintained on 50 mg of A2-73 daily and is sleeping well. A person diagnosed with Alzheimer's disease presents with insomnia/WASO and agitation and a systolic blood pressure of 145 mm Hg. They are started on oral A2-73 at 30 mg/day. […] They are also less agitated. Their results on all cognitive tests and HAM-D improve. They are currently maintained on 30 mg of A2-73 daily. A person diagnosed with Alzheimer's disease presents with insomnia/WASO and agitation. They are started on oral A2-73 at 100 mg/day. […] They are also less agitated. Their results on all cognitive tests and HAM-D improve. They are currently maintained on 100 mg of A2-73 every other day. A person diagnosed with Alzheimer's disease presents with insomnia/WASO and agitation. They are started on oral A19-144 at 50 mg/day. […] They are also less agitated. Their results on all cognitive tests and HAM-D improve. They are currently maintained on 50 mg of A19-144 daily. A person diagnosed with Alzheimer's disease presents with insomnia/WASO and agitation. They are started on oral A1-41 at 30 mg/day. […] They are also less agitated. Their results on all cognitive tests and HAM-D improve. They are currently maintained on 30 mg of A1-41 daily.
# [3] = Example 7: oral 30 mg/day, 30 days
# [4] = Example 8: oral 100 mg/day, 30 days
smiles,measurement,setting,value
"CN(C)CC1CCOC1(c1ccccc1)c1ccccc1.Cl (stereo not drawn) [A2-73, tetrahydro-N,N-dimethyl-2,2-diphenyl-3-furanmethanamine hydrochloride]","Cogstate tasks: psychomotor function, attention and working memory",[1],sustained benefit; also recorded: benefits over baseline
same,Sleep at follow up (maintenance insomnia),"[2]; Example 1: person, oral 10 mg/day, 30 days",sleeping well
same,Anxiety,"[2]; Example 2: person, 20 mg oral every other day, after two days of dosing",Resolution of the anxiety
same,Clinical evaluation of agitation,"[2]; Example 3: person, 30 mg oral daily for 30 days",normal affect without agitation
same,Sleep at follow up (maintenance insomnia),"[2]; Example 6: person with MCI, oral 50 mg/day, 30 days",sleeping well
same,Agitation at follow up,[2]; [3],less agitated
same,Results on all cognitive tests and HAM-D,[2]; [3],improve
same,Systolic BP at follow up,"[2]; Example 7: oral 30 mg/day, 30 days, 145 mm Hg at presentation",129 mm Hg
same,Sleep at follow up (insomnia/WASO),"[2]; Example 7: person with AD, oral 30 mg/day, 30 days",sleeping well through the night
same,Agitation at follow up,[2]; [4],less agitated
same,Results on all cognitive tests and HAM-D,[2]; [4],improve
same,Sleep at follow up (insomnia/WASO),"[2]; Example 8: person with AD, oral 100 mg/day, 30 days",sleeping well through the night
